Assay results: patent US6541638B2, “Pyrrolidine derivatives” (Hoffman-La Roche Inc., priority 2000, dated 2003)

- melting point: 173.5 °C (dec.)
SMILES: O=C([C@@H]1C[C@@H](S)CN1S(=O)(=O)c1ccc2ccccc2c1)N(CCc1nnn[nH]1)C1CC1
